# Source: patent US20240115554A1, “METHODS FOR TREATING OBSTRUCTIVE HYPERTROPHIC CARDIOMYOPATHY” (Cytokinetics, Incorporated, priority 2022, published 2024)
# Where “and” joins values, the source holds several entries; their conditions need not be identical. Equal values may be shown once.
# Legend:
# healthy adults = experiment: Phase 1 echocardiography pharmacodynamics (LVEF); type: in vivo, human
# Method: Echocardiography. For PD assessments of LVEF, echocardiograms for the SAD and MAD cohorts were interpreted by the echocardiography core laboratory and used for all data analysis and dose level review decisions while immediate local interpretation of the echocardiograms was performed for safety monitoring. […] Echocardiograms on day 3 (48 h after dosing) were obtained only if the 24 h LVEF had not returned to near or above baseline, as determined by the investigator. In the MAD cohorts, echocardiograms were obtained on day −1, pre-dose on day 1, and at 1.5 h post dose on days 2, 4, and 9, and at 1.5, 24, and 72 h post dose on day 14 (for the 5-mg and 10-mg cohorts) or on day 17 (for the 7.5-mg cohort). Echocardiograms were obtained 3 days after the last dose (on day 17 or 20) only if the participant's prior LVEF was not near or above baseline, as determined by the investigator. […] Descriptive statistics of the echocardiographic parameters were generated using SAS® Version 9.3 or higher. Dose-response analysis was performed using analysis of covariance (ANCOVA) to identify the least-squares mean difference (aficamten minus placebo). To analyze the impact of drug dose on echocardiographic parameters in the SAD and MAD cohorts, an inferential analysis was conducted on the PD analysis set using linear mixed models for repeated-measures analysis of covariance (ANCOVA). The ANCOVA used baseline value as a covariate, included treatment, time-point, and time-point-by-treatment interaction as fixed effects, and change from baseline as the dependent variable. The unstructured variance-covariance structure was used, and the model accounted for the time-point repeated measures. The ANCOVA analysis was conducted separately for each study part and for each PD parameter. The least-squares means, the difference in least squares means (active minus placebo), and the associated 2-sided 95% CIs were presented for each comparison. Analyses of concentration ‘bin’ and exposure-response were also performed using ANCOVA. SAS® PROC MIXED was used for all comparative analyses. […] A concentration bin ANCOVA was conducted using linear mixed models for repeated-measures analyses with concentration bin group as a fixed effect, baseline PD parameters as a covariate, change from baseline as the dependent variable, and a random intercept to adjust for the repeated measures. The unstructured variance-covariance structure was used. […] The ANCOVA compared the change in PD parameters between each bin versus the pooled placebo group. The least-squares means, the difference in least squares means (bin group minus placebo), and the associated 2-sided 95% CIs were presented for each comparison. The ANCOVA analysis was conducted separately for each study part. For all time-points at which both PK data and PD measures were available, the time-points were pooled for the analysis. […] From least to greatest, the data were then divided into 5 groups of observations (‘bins’), each consisting of 20% of the data points. Each bin was treated as a separate group. […] The above analysis was then repeated using concentration as a continuous variable to estimate the exposure-response trend. Both a random intercept effect and a random concentration effect were added to the ANCOVA. The estimate of the concentration slope, with corresponding 2-sided 95% CIs, and the ANCOVA analyses were presented for each study part.
# [1] = system: patients with symptomatic obstructive HCM (oHCM); experiment: Phase 2 trial: echocardiography (LVOT-G, LVEF, cardiac remodeling); type: in vivo, human; details: for patients achieving resting gradient <30 mmHg and post-Valsalva gradient <50 mmHg at Week 10 (complete hemodynamic response): n=14
# Excerpt: Cohort 3 included patients receiving disopyramide.
# Since patient characteristics vary substantially in this disease, individualized dose titration to a pharmacodynamics (PD) response (reduction of the LVOT-G to <30 mmHg with preservation of LVEF >50%) was employed to maximize efficacy and safety.
# Patients up-titrated to Dose 2 if either of the following conditions were met on echocardiography: (1) resting LVOT-G ≥30 mmHg and the biplane LVEF ≥50%; or (2) resting LVOT-G <30 mmHg, post-Valsalva LVOT-G ≥50 mmHg, and the biplane LVEF ≥50%. Otherwise, the patient remains on Dose 1. If LVEF is <50% at Week 2, the patient was down-titrated to placebo.
# Patients were escalated to the next higher dose if either of the following conditions were met on echocardiography: (1) resting LVOT-G ≥30 mmHg and the biplane LVEF ≥50%; or (2) resting LVOT-G <30 mmHg, post-Valsalva LVOT-G ≥50 mmHg, and the biplane LVEF ≥50%. Otherwise, the patient remained on the same dose. If LVEF was <50% at Week 4, the patient was returned to a prior dose level or to placebo if the patient was on Dose 1.
# Echocardiograms obtained every 2 weeks and 2 weeks after the last dose were analyzed for several key structural and physiologic metrics and N-terminal prohormone of brain natriuretic peptide (NT-proBNP).
# Overall, treatment duration for each patient in the study was 10 weeks with an echocardiogram conducted 2 weeks after the last dose.
# Secondary results from the clinical study included data from Cohort 3 (n=13). […] Overall, treatment duration for each patient in the study was 10 weeks with an echocardiogram conducted 2 weeks after the last dose. Efficacy endpoints included resting and provoked LVOT gradients, NYHA class, and NT-proBNP.
# [2] = SAD 50 mg (n = 11), change from baseline at […]
# [3] = Cohort 3 (with disopyramide), n=13
# [4] = baseline to week 10, pooled aficamten
smiles,measurement,setting,value
"CCc1nc(-c2ccc3c(c2)CC[C@H]3NC(=O)c2cnn(C)c2)no1 [aficamten, (R)—N-(5-(5-ethyl-1,2,4-oxadiazol-3-yl)-2,3-dihydro-1H-inden-1-yl)-1-methyl-1H-pyrazole-4-carboxamide]",plasma aficamten concentration with minimal suppression of LVEF in most participants,healthy adults; MAD cohorts,< 180 ng/mL
same,time within which LVEF returned to baseline in participants whose LVEF fell below 50%,healthy adults; Phase 1,≤ 24 h
same,"E, Mean","healthy adults; SAD 50 mg (n = 11), […]",64 cm/s
same,"A, CFB Mean",healthy adults; [2],2.5 cm/s
same,"E, CFB Mean",healthy adults; [2],-2.7 cm/s
same,"Heart rate, CFB Mean",healthy adults; [2],0.5 bpm
same,"IVCT, CFB Mean",healthy adults; [2],0.4 ms
same,"IVRT, CFB Mean",healthy adults; [2],0.5 ms
same,"LAV, CFB Mean",healthy adults; [2],0 mL
same,"LV EDV, CFB Mean",healthy adults; [2],6.6 mL
same,"LV ESV, CFB Mean",healthy adults; [2],8.1 mL
same,"LV ET, CFB Mean",healthy adults; [2],1.9 ms
same,"LV SV, CFB Mean",healthy adults; [2],-6.2 mL
same,"LVEF, CFB Mean",healthy adults; [2],−5.8%
same,"e′ lateral, CFB Mean",healthy adults; [2],-1.3 cm/s
same,participants with absolute reduction in LVEF of ≥5% from baseline,"healthy adults; SAD 1-, 10-, or 25-mg cohorts",no participants
same,participants with reduction in LVEF to <50%,healthy adults; SAD 50-mg cohort (2 of 11),18%
same,LVEF of the participants with LVEF <50%,"healthy adults; SAD 50-mg cohort, 2 participants, core laboratory assessment",48.2% and 45.5%
same,mean maximum reduction in LVEF,"healthy adults; SAD 50-mg group, […] post dose",5.8%
same,participants with reduction in LVEF to <50%,healthy adults; SAD 75-mg cohort (1 of 1),100%
same,relationship of plasma concentration to change in LVEF,healthy adults; SAD cohorts,trend toward a decrease in LVEF
same,participants with LVEF <45%,"healthy adults; SAD cohorts, core laboratory",Only the participant in the 75-mg cohort experienced LVEF <45%
same,reduction in LVEF to <50%,"healthy adults; any of the MAD cohorts, core laboratory assessment",not observed
same,decrease in mean LVEF from baseline (least-squares mean difference),"healthy adults; single 50-mg dose, […] post dose",5.5%
same,LVEF after reduction,"healthy adults; single dose of 75 mg, 1 participant, approximately […] after dosing",34.1%
same,reduction in LVEF,"healthy adults; single participant, 75 mg, […] post dose",31.5%
same,patients achieving resting gradient <30 mmHg and post-Valsalva gradient <50 mmHg at Week 10 (complete hemodynamic response),"[1]; Cohort 1 (5, 10, 15 mg)",78.6% and 79%
same,average resting LVOT-G at 10 weeks,"[1]; Cohort 1 (n=14), 53.8 mmHg at baseline",13.4 mmHg
same,average Valsalva LVOT-G at 10 weeks,"[1]; Cohort 1 (n=14), 77.4 mmHg at baseline",38.1 mmHg
same,average ejection fraction at 10 weeks,"[1]; Cohort 1 (n=14), baseline 72.8% (73±6%)",67.3% and 67±9%
same,patients achieving resting gradient <30 mmHg and post-Valsalva gradient <50 mmHg at Week 10 (complete hemodynamic response),"[1]; Cohort 2 (10, 20, 30 mg)",92.9% and 93%
same,average resting LVOT-G at 10 weeks,"[1]; Cohort 2 (n=14), 58.2 mmHg at baseline",15.1 mmHg
same,average Valsalva LVOT-G at 10 weeks,"[1]; Cohort 2 (n=14), 82.3 mmHg at baseline",29.8 mmHg
same,average ejection fraction at 10 weeks,"[1]; Cohort 2 (n=14), baseline 75.4% (75±6%)",64.1% and 64±8%
same,patients with complete or partial response in LVOT gradients at end of treatment,[1]; Cohort 3 (Ten of 13),77%
same,patients with temporary complete or partial response during the treatment period,[1]; Cohort 3 (Three patients),23%
same,mean (SD) reduction of resting LVOT-G at Week 10,[1]; [3],27 mmHg
same,mean reduction of Valsalva LVOT-G at Week 10,[1]; [3],28 mmHg
same,mean LVEF at end of 10-week treatment,"[1]; Cohort 3 (with disopyramide), baseline 74±7.5%",69±7.2%
same,dose dependence of reductions in LVOT-G,[1]; Cohorts 1 and 2,dose dependent
same,onset of reductions in LVOT-G,[1]; Cohorts 1 and 2,within two weeks of initiating treatment
same,mean reduction in EF per mg of aficamten,"[1]; Cohorts 1 and 2, dose vs EF over time",−0.6 % per mg
same,change in e′,[1]; [4],0.5 cm/s
same,change in lateral E/e′,[1]; [4],−2.0 (±1.1)
same,"LVMI mean difference, aficamten vs placebo",[1]; week 10,8.1 g/m^2
